Values joined by “and” are separate entries in the source; they are usually repeats but may differ in a detail not shown here. Identical values can stand only once.
Assays:
[1] = tested on: hpol η; settings: cited from earlier work
[2] = target: T1, hpol ι (Homo sapiens, UniProt Q9UNA4); settings: cited from earlier work
T1 sequence (Q9UNA4 26-446): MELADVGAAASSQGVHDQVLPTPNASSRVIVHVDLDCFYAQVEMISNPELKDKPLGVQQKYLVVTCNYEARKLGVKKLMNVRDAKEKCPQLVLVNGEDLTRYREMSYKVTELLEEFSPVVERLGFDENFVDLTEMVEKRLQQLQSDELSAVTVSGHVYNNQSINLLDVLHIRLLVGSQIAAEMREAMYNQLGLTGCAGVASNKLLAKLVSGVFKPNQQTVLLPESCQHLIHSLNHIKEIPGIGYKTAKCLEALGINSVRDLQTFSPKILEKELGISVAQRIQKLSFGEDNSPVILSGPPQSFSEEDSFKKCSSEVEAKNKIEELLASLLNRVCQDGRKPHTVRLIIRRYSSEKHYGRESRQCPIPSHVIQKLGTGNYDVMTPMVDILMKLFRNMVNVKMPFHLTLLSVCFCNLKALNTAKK

[3] = target: T2, human DNA polymerase eta (hpol η) (Homo sapiens, UniProt Q9Y253); experiment: Fluorescence-based polymerase strand-displacement assay, hpol η; assay type: biochemical; settings: for IC50: read-out: IC50 for inhibition of hpol η, 10 nM hpol η, 50 nM DNA, 0.1 mM dTTP, mean ± standard deviation, triplicate
T2 sequence (Q9Y253 1-437): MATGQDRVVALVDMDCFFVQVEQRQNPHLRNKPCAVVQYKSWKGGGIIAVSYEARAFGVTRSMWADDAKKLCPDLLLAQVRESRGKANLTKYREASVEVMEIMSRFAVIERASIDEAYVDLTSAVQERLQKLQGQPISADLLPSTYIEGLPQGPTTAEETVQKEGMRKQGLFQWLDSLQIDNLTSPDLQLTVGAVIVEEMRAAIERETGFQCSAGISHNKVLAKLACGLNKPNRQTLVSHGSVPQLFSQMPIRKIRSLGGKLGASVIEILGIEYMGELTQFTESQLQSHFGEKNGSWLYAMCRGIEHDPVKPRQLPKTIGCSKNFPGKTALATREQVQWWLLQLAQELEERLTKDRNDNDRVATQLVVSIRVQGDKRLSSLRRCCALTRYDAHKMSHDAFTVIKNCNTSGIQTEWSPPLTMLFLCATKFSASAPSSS

[4] = tested on: human tumor cell lines; settings: cited from earlier work
[5] = tested on: hpol β; settings: cited from earlier work
[6] = target: T3, hetero-dimeric hpol γ (Homo sapiens, UniProt P54098); experiment: Fluorescence-based polymerase assay, hpol γ; assay type: biochemical; settings: read-out: IC50 for inhibition of hpol γ; 10 nM hpol γ, 50 nM DNA; mean ± standard deviation
T3 sequence (P54098 1-1239): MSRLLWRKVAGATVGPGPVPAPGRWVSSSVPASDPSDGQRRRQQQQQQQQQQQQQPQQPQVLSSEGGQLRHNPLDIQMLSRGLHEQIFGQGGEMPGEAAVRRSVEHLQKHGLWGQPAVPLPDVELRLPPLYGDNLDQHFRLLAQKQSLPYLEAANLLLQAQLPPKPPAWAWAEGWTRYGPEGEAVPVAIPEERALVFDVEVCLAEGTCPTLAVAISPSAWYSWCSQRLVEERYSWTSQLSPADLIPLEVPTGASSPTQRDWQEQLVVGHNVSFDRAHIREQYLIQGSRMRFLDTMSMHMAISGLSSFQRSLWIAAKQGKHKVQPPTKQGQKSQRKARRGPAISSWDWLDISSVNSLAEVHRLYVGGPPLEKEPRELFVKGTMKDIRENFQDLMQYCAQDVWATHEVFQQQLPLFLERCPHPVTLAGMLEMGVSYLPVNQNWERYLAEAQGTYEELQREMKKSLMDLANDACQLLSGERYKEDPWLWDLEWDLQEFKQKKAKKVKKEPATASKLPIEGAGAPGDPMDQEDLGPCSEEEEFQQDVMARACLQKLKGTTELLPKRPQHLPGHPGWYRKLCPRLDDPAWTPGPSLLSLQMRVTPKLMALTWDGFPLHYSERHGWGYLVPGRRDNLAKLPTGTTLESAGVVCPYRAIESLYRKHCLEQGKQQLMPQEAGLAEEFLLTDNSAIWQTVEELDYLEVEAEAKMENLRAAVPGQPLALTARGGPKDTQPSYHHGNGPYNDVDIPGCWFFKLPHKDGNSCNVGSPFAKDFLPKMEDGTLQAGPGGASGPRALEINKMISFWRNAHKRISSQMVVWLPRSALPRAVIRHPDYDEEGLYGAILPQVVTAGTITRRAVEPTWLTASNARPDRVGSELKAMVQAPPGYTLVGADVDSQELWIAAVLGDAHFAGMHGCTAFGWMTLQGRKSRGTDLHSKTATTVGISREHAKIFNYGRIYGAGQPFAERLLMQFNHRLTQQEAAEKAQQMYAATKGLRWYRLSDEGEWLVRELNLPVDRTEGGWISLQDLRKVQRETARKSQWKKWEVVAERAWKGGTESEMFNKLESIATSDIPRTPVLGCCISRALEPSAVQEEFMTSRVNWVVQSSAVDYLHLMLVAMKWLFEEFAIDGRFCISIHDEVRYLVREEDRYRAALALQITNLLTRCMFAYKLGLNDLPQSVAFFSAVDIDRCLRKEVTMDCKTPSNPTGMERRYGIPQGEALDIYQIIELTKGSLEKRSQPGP
T3 sequence (Q9UHN1 26-485 partner limits assumed): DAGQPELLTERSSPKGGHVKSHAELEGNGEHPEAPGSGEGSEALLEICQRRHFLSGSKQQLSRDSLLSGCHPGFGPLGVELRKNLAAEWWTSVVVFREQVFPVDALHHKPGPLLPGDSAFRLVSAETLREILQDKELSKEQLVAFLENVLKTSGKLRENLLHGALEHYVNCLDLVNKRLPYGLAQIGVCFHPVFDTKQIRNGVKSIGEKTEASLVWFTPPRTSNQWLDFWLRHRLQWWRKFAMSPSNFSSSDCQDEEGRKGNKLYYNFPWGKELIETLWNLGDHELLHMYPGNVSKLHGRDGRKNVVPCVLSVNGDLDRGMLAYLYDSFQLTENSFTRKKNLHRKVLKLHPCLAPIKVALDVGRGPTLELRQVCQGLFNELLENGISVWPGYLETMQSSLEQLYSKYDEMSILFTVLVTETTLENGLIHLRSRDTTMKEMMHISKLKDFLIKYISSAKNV

[7] = target: T4, human Y-family DNA polymerase kappa (hpol κ) (Homo sapiens, UniProt Q9UBT6); experiment: Fluorescence-based polymerase assay, hpol κ; assay type: biochemical; settings: read-out: IC50 for inhibition of hpol κ; 3 nM hpol κ, 60 nM DNA; mean ± standard deviation
T4 sequence (Q9UBT6 19-526): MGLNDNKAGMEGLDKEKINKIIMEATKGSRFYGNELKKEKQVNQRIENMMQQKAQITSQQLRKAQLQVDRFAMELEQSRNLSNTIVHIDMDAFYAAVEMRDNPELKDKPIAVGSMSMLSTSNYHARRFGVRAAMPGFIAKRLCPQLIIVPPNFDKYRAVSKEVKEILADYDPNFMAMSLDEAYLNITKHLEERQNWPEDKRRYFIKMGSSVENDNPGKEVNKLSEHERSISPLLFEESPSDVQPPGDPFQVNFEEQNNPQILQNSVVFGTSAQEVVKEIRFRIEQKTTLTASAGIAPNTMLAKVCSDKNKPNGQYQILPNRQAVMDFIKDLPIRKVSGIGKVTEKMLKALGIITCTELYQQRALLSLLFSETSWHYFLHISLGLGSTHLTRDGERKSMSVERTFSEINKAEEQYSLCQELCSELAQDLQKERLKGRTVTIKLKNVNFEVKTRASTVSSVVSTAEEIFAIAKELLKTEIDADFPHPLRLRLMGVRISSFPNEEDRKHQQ

In the case of `CC(C)c1ccc2c(c1)c(SC(C)(C)C)c(CC(C)(C)C(=O)O)n2Cc1ccc(Cl)cc1` [MK886], the IC50 ([1]; read-out: IC50 for inhibition of hpol η) is given as roughly 46 µM, the “Inhibition of hpol ι relative to other Y-family pols” value ([2]; hpol ι versus other Y-family pols) is given as “five- to eight-times more effectively” and the IC50 ([2]; read-out: IC50 for inhibition of hpol ι) is given as 9 µM.
With `O=C1NC(=S)NC(=O)C1=Cc1cn(C(=O)c2ccc3ccccc3c2)c2ccccc12` [ITBA-18] the “Inhibition of hpol η activity (percent activity relative to control), in words” value ([3]; 50 μM compound, relative to DMSO control (Figure 4C)) was “roughly equal activity against hpol η” and the IC50 [3] was 67.8 ± 3.3 µM.
For `O=C1NC(=S)NC(=O)C1=Cc1cn(C(=O)c2cccc3ccccc23)c2ccc(Cl)cc12` [ITBA-17], the “Anti-proliferative and cytotoxic properties” value [4] is listed as “potent anti-proliferative and cytotoxic properties”.
In the case of `O=C(O)C1=CC(=C(c2ccc(O)c(C(=O)O)c2)c2ccc(O)c(C(=O)O)c2)C=CC1=O` [aurintricarboxylic acid], the “IC50 for inhibition of hpol β” value [5] is given as “sub-micromolar”, the “Specificity against hpol β” value [5] is given as “greater than 2 fold” and the “IC50 for inhibition of hpol η” value [1] is given as “sub-micromolar”. For the same compound, the “IC50 for inhibition of hpol ι” value [2] was “sub-micromolar”.
With `O=C1NC(=S)NC(=O)C1=Cc1cn(C(=O)c2cccc3ccccc23)c2ccc(Cl)cc12` [ITBA-16] the “Fold by which IC50 for hpol η is lower than any of the other pols tested” value ([3]; hpol η versus seven other polymerases) was “over 2 fold”, the IC50 [3] was 16 µM and 15.8 µM and the IC50 [6] was 35.3 ± 2.9 µM. The IC50 [7] was 32.9 ± 3.2 µM.
In the case of `O=c1oc2c(O)c(O)cc3c(=O)oc4c(O)c(O)cc1c4c23` [ellagic acid], the “IC50 for inhibition of hpol β” value [5] is given as “sub-micromolar”, the “Specificity against hpol β” value [5] is given as “greater than 2 fold” and the “IC50 for inhibition of hpol η” value [1] is given as “sub-micromolar”. The “IC50 for inhibition of hpol ι” value [2] was “sub-micromolar”.
